Experimental data taken from the OligoGym collection.
After the bases stand the sugars from the 5' end (letter, count) and the backbone: PS all phosphorothioate, else s phosphorothioate and o phosphodiester by linkage. Methylation of C is not given here. e = 2'-O-(2-methoxyethyl) (MOE); k = constrained ethyl (cEt); d = 2'-deoxy (DNA); m = 2'-O-methyl

Target: HSD17B13
Settings: ASO, HepaRG

Sequence	target mRNA inhibition (1 µM) [%]	other results
CTGTGGCATGGCTACA (sugars k3 d1 m1 d8 k3, PS)	35	
CTGTGGCATGGCTACA (sugars k3 d9 k3 e1, PS)	58	
CTGTGGCATGGCTACA (sugars k3 d10 k3, PS)	66	
CTTAATTTTCGGGTTC (sugars k3 d10 k3, PS)	37	
CTTACATGATTAAGCA (sugars k3 d10 k3, PS)	44	
CTTACCAATATGGGAT (sugars k3 d10 k3, PS)	11	
CTTACGACTTCATCTG (sugars k3 d10 k3, PS)	38	
CTTATGATAATTTGGT (sugars k3 d10 k3, PS)	2	
CTTATTGGTAAGTATT (sugars kkdddddddddkekek, PS)	9	
CTTAUTGGTAAGTATT (sugars k3 d1 m1 d8 k3, PS)	0	
CTTCACTATATTGCAT (sugars k3 d10 k3, PS)	50	
CTTCAGTTAGCAGCTA (sugars k3 d10 k3, PS)	50	
CTTCCAAGCATTCCAT (sugars k3 d10 k3, PS)	57	
CTTCTATTAGTTGGCC (sugars k3 d10 k3, PS)	11	
CTTGACAATGGTTGCC (sugars k3 d10 k3, PS)	58	
CTTGATCTCTTAGCTG (sugars k3 d10 k3, PS)	51	
CTTGGAAGGAGACTGG (sugars k3 d10 k3, PS)	60	
CTTGGGTCCATTGTTT (sugars k3 d10 k3, PS)	44	
CTTGTGTAGTCCTAGG (sugars k3 d10 k3, PS)	71	target mRNA inhibition (0.02 µM): 7%; target mRNA inhibition (0.078 µM): 13%; target mRNA inhibition (0.313 µM): 39%; target mRNA inhibition (1.25 µM): 70%; target mRNA inhibition (5 µM): 87%
CTTTAGCTTAAACTCC (sugars k3 d10 k3, PS)	69	
CTTTGAGACTCTTGTT (sugars k3 d1 m1 d8 k3, PS)	15	
CTTTGCAGCATTGATT (sugars k3 d9 k3 e1, PS)	56	
CTTTGCAGCATTGATT (sugars kkdddddddddkekek, PS)	49	
CTTTTAGTCAGGTAGA (sugars k3 d10 k3, PS)	33	

Sequence	target mRNA inhibition (1 µM) [%]	other results
CTTTTGGTGGACTTCA (sugars k3 d10 k3, PS)	10	
CTTTUTATAGACTGGG (sugars k3 d1 m1 d8 k3, PS)	34	
GAAAACTCAGCCAGCA (sugars k3 d10 k3, PS)	78	target mRNA inhibition (0.02 µM): 0%; target mRNA inhibition (0.078 µM): 2%; target mRNA inhibition (0.313 µM): 51%; target mRNA inhibition (1.25 µM): 73%; target mRNA inhibition (5 µM): 75%
GAAAAGATGTACACTG (sugars k3 d10 k3, PS)	56	
GAAAAGCCTGACTCAC (sugars k3 d10 k3, PS)	48	
GAAATCTTGTGTAACT (sugars k3 d10 k3, PS)	69	target mRNA inhibition (0.02 µM): 0%; target mRNA inhibition (0.078 µM): 4%; target mRNA inhibition (0.313 µM): 37%; target mRNA inhibition (1.25 µM): 71%; target mRNA inhibition (5 µM): 87%
GAAATTGATACACCAA (sugars kkdddddddddkekek, PS)	68	
GAAAUTGATACACCAA (sugars k3 d1 m1 d8 k3, PS)	58	
GAACAATATGGGATGA (sugars kkdddddddddkekek, PS)	49	
GAACACTGTCATAAAG (sugars k3 d10 k3, PS)	43	
GAACCAATATGCTCTG (sugars k3 d10 k3, PS)	61	
GAACCGTATTCCCAAC (sugars k3 d10 k3, PS)	72	
GAACCTATGTGTGCAC (sugars k3 d10 k3, PS)	53	
GAAGGATTTCTAGGAT (sugars k3 d10 k3, PS)	71	target mRNA inhibition (0.02 µM): 0%; target mRNA inhibition (0.078 µM): 0%; target mRNA inhibition (0.313 µM): 24%; target mRNA inhibition (1.25 µM): 61%; target mRNA inhibition (5 µM): 88%
GAAGTTAGTATAGTTA (sugars k3 d9 k3 e1, PS)	75	
GAAGTTAGTATAGTTA (sugars k3 d10 k3, PS)	59	
GAAGTTCTGATGTCAG (sugars k3 d10 k3, PS)	0	
GAATAGCCATGTAGCT (sugars k3 d10 k3, PS)	21	
GAATATATACTAGGAT (sugars k3 d10 k3, PS)	5	
GAATCCAGATCTGCCC (sugars k3 d10 k3, PS)	29	
GAATCCATTCTATGCA (sugars k3 d10 k3, PS)	47	
GAATGCTACTTGAACA (sugars k3 d1 m1 d8 k3, PS)	48	
GAATGTAAAGGCTGGG (sugars k3 d10 k3, PS)	42	
GACAACCCTTAACAAA (sugars k3 d10 k3, PS)	24	

Sequence	target mRNA inhibition (1 µM) [%]	other results
GACAACTGATGTCCAG (sugars k3 d10 k3, PS)	12	
GACAATGGTTGATAGT (sugars k3 d10 k3, PS)	67	
GACAGGTAATTAATCT (sugars k3 d10 k3, PS)	60	
GACATAACTACTTCAG (sugars k3 d10 k3, PS)	66	
GACATAGACATGTGTT (sugars k3 d10 k3, PS)	26	
GACATGAGGTTTTGAT (sugars k3 d9 k3 e1, PS)	55	
GACCAATATAATCCAA (sugars k3 d10 k3, PS)	34	
GACTAATGCAAGATTT (sugars k3 d10 k3, PS)	55	
GACTTTGAGACTCTTG (sugars k3 d10 k3, PS)	65	
GACTTTTGTTTGTAGC (sugars k3 d10 k3, PS)	74	
GAGATAAAGCTGCCTG (sugars kkdddddddddkekek, PS)	40	
GAGCATAAGTTACCAG (sugars k3 d10 k3, PS)	61	
GAGCATTCATCAGATG (sugars k3 d10 k3, PS)	64	
GAGGTAAGGAATCCCT (sugars k3 d10 k3, PS)	27	
GAGGTATGTCATACTT (sugars k3 d10 k3, PS)	29	
GAGGTTTTGATACCAG (sugars k3 d10 k3, PS)	59	
GAGTAGTGTAAGCTGA (sugars k3 d10 k3, PS)	80	target mRNA inhibition (0.02 µM): 12%; target mRNA inhibition (0.078 µM): 12%; target mRNA inhibition (0.313 µM): 51%; target mRNA inhibition (1.25 µM): 69%; target mRNA inhibition (5 µM): 92%
GAGTCGGTCACCTTTC (sugars k3 d9 k3 e1, PS)	74	target mRNA inhibition (0.02 µM): 0%; target mRNA inhibition (0.078 µM): 0%; target mRNA inhibition (0.313 µM): 0%; target mRNA inhibition (1.25 µM): 51%; target mRNA inhibition (5 µM): 76%
GAGTCGGTCACCTTTC (sugars k3 d10 k3, PS)	82	target mRNA inhibition (0.02 µM): 0%; target mRNA inhibition (0.078 µM): 30%; target mRNA inhibition (0.313 µM): 55%; target mRNA inhibition (1.25 µM): 82%; target mRNA inhibition (5 µM): 82%
GAGTGCATCTTAAGAT (sugars k3 d9 k3 e1, PS)	34	
GAGTGCATCTTAAGAT (sugars kkdddddddddkekek, PS)	27	
GAGTTAGGGAGCCAGC (sugars k3 d10 k3, PS)	39	
GAGTTATACAGAAGAC (sugars k3 d10 k3, PS)	61	
GAGTTGCACCGTTTTG (sugars kkdddddddddkekek, PS)	61	

Sequence	target mRNA inhibition (1 µM) [%]	other results
GATAAAGCTGCCTGCT (sugars k3 d10 k3, PS)	42	
GATACCCAGGTTGCTT (sugars k3 d10 k3, PS)	53	
GATACTGGTGGACAAG (sugars k3 d10 k3, PS)	13	
GATACTTACCAATATG (sugars k3 d10 k3, PS)	22	
GATATGAGTAAAGATC (sugars k3 d10 k3, PS)	23	
GATATTCTGTGGCATG (sugars k3 d10 k3, PS)	46	
GATATTGATATACGAT (sugars k3 d10 k3, PS)	2	
GATATTGTTTAGCTGA (sugars k3 d10 k3, PS)	59	
GATCCATATTCCCTGA (sugars k3 d10 k3, PS)	74	target mRNA inhibition (0.02 µM): 0%; target mRNA inhibition (0.078 µM): 0%; target mRNA inhibition (0.313 µM): 21%; target mRNA inhibition (1.25 µM): 40%; target mRNA inhibition (5 µM): 60%
GATCGGCTGGATATAC (sugars k3 d10 k3, PS)	7	
GATCTCTTAGCTGTGC (sugars k3 d9 k3 e1, PS)	70	
GATCUCTTAGCTGTGC (sugars k3 d1 m1 d8 k3, PS)	65	
GATGATTCTGACTCAT (sugars k3 d10 k3, PS)	55	
GATGTGGCCATGATTT (sugars k3 d10 k3, PS)	9	
GATTACCCCTGGCTTT (sugars k3 d10 k3, PS)	31	
GATTAGTCTTGATGTA (sugars k3 d1 m1 d8 k3, PS)	45	
GATTAGTTAACCTTTT (sugars k3 d10 k3, PS)	58	
GATTATTATGTGATTG (sugars k3 d10 k3, PS)	39	
GATTGAATTCACTATC (sugars k3 d10 k3, PS)	0	
GATTGGAATGCTACTT (sugars k3 d1 m1 d8 k3, PS)	48	
GATTTAAAATAGAGTC (sugars k3 d10 k3, PS)	46	
GATTTCTAGGATGATG (sugars k3 d10 k3, PS)	57	
GCAAAAGGAGCCAGTT (sugars k3 d10 k3, PS)	57	
GCAAAGTTAATAGGAC (sugars k3 d10 k3, PS)	52	
